Experimental data as given in patent US9056091B1, “Composition for regulation of liver X receptor” (National Taiwan University, priority 2014, dated 2015).

What was measured:
[1] = biological target: T1, hLXRα (Homo sapiens, UniProt Q13133); test: LXRα transactivation activity, GAL4-hLXRα LBD / (UAS)4-alkaline phosphatase reporter, transient transfection in CHO-K1 cells; format: cell-based; design: key to Enhancing effect (LXRα): “—” indicates no significant effect; conditions: for LXRα transactivation activity, % of T0901317: co-treated with LXR agonist T0901317 (0.5 μM); for LXRα transactivation activity, % of T0901317 / LXRα transactivation activity: 48 hours; for Antagonistic effect (LXRα), ↓ percentage: against LXR agonist (T0901317); for LXRα transactivation activity: sample alone at 1, 5, and 10 μM, p>0.05 vs vehicle; for Enhancing effect (LXRα): sample alone, enhancing percentage relative to positive control
T1 construct: expressed in transfected cells; host or cells: CHO-K1 (Chinese hamster ovary), transient transfection with pBKCMV GAL4-hLXRα
T1 sequence (Q13133 209-447 limits assumed): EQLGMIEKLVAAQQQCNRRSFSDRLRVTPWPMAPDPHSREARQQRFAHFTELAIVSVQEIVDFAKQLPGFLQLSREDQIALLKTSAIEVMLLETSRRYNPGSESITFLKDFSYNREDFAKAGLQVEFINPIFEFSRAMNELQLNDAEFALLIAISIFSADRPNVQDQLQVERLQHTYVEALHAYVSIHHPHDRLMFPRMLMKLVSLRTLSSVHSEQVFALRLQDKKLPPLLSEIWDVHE
From the text: (§1) For the evaluation of LXR transactivation activity, the embodiments of the present invention utilize transient transfection and the vectors used are: (1) pBKCMV GAL4-hLXRα and pBKCMV GAL4-hLXRβ; (2) pBKCMV (UAS)4-alkaline phosphatase, wherein pBKCMV GAL4-hLXRα and pBKCMV GAL4-hLXRβ are pBKCMV vectors having chimeric receptor of GAL4-hLXRα ligand binding doman (LBD) and GAL4-hLXRβ LBD, while pBKCMV (UAS)4-alkaline phosphatase is the pBKCMV vector having the reporter gene of (UAS)4 alkaline phosphatase (ALP). UAS indicates upstream activation sequence. All vectors were co-transfected into Chinese hamster ovary cell (CHO-K1, from Bioresource Collection and Research Center of Food Industry Research and Development Institute, BCRC: 6006).
(§2) Transient transfection of the embodiments of the present invention was performed using Lipofectamin 2000 (Invitrogen). Firstly, after CHO-K1 cells were fully grown, cells were dis-attached by trpsin-EDTA solution and were eluted using 10% CSF-Ham's F-12, wherein CSF represents the FBS pretreated by charcoal (Dextran coated, Sigma, C6231). The cell suspension was diluted to 2.5×10^5 cells/mL, planted onto 96-well plate (100 μL/well), and incubated for 20 to 24 hours at 37° C. with 5% CO2.
(§3) Detailed steps for transfection are as follow: Lipofectamine 2000 was diluted in PS tubes by serum-free OPTI-MEM®I (GIBCO, 31985) for 5 minutes at room temperature; the vector DNA was diluted by a small amount of serum-free OPTI-MEM®I; the vectors in Table 2 were mixed with Lipofectamine 2000 with specific ratio (GAL4-hLXRα:(UAS)4-ALP=4:1; GAL4-hLXRβ:(UAS)4-ALP=4:1) and reacted for 20 minutes at room temperature. During the reaction, the cells were washed by serum-free Ham's F-12 medium (100 μL/well) twice to allow the formation of DNA-liposome complex; the vectors were then added to the above washed cells for transfection to take place at 37° C. and 5% CO2. Solution for transfection was removed after the transient transfection was completed.
Cells after transient transfection in Example 1 and removing the transfection solution were added to fucoxanthin and fucoxanthinol diluted with 10% TCM-Ham's F-12, LXR agonist T0901317, or none, to serve as experimental group, positive control, or vehicle, respectively. The ALP activities of all groups were analysis after incubation for 48 hours at 37° C. with 5% CO2.
(§4) The ALP activity analysis was performed by reacting the culture medium (20 μL/well) and reactant (100 mM pNPP:H2O:2X SEAP assay buffer=1:9:10, 200 μL/well) in a new 96-well plate for 15 minutes at 37° C. The absorbance at 405 nm was measured using microspectrometer.

[2] = biological target: T2, hLXRβ (Homo sapiens, UniProt P55055); test: LXRβ transactivation activity, GAL4-hLXRβ LBD / (UAS)4-alkaline phosphatase reporter, transient transfection in CHO-K1 cells; format: cell-based; conditions: for LXRβ transactivation activity, % of GW3965: co-treated with LXR agonist GW3965 (0.5 μM); for LXRβ transactivation activity, % of GW3965 / LXRβ transactivation activity, % of the positive control GW3965: 48 hours; for Antagonistic effect (LXRβ), ↓ percentage: against LXR agonist (GW3965); for Enhancing effect (LXRβ), ↑ percentage: sample alone, relative to positive control
T2 construct: expressed in transfected cells; host or cells: CHO-K1 (Chinese hamster ovary), transient transfection with pBKCMV GAL4-hLXRβ
T2 sequence (P55055 222-460 limits assumed): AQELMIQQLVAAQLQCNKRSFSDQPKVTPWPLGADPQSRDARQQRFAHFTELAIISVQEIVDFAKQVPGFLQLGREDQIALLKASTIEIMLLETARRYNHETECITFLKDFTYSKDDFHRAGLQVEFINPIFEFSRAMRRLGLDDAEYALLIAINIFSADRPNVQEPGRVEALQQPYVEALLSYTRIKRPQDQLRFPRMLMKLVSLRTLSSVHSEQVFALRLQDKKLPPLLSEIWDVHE
From the text: as §1, §2, §3, §4
Cells after the abovementioned transient transfection and removing the transfection solution were added to fucoxanthin and fucoxanthinol diluted with 10% TCM-Ham's F-12, LXR agonist GW3965 (3-[3-[[[2-Chloro-3-trifluoromethyl)-phenyl]methyl](2,2-diphenyl-ethyl)amino]-propoxy]benzeneacetic acid), or none, to serve as experimental group, positive control, or vehicle, respectively. The ALP activities of all groups were analysis after incubation for 48 hours at 37° C. with 5% CO2. Same method for ALP analysis applied as describe in Example 2.

| Compound | LXRα transactivation activity, % of T0901317 ([1]; 5 μM) [%] | Antagonistic effect (LXRα), ↓ percentage ([1]; 10 μM) | LXRα transactivation activity, % of T0901317 ([1]; 10 μM) [%] | LXRα transactivation activity [1] | Enhancing effect (LXRα) [1] | LXRβ transactivation activity, % of GW3965 ([2]; 5 μM) [%] | Antagonistic effect (LXRβ), ↓ percentage ([2]; 10 μM) | LXRβ transactivation activity, % of GW3965 ([2]; 10 μM) [%] | Enhancing effect (LXRβ), ↑ percentage ([2]; 10 μM) | LXRβ transactivation activity, % of the positive control GW3965 ([2]; sample alone at 10 μM) | LXRβ transactivation activity, % of GW3965 ([2]; 1 μM) [%] | Enhancing effect (LXRβ), ↑ percentage ([2]; 1 μM) | LXRβ transactivation activity, % of the positive control GW3965 ([2]; sample alone at 1 μM) | LXRβ transactivation activity, % of the positive control GW3965 ([2]; sample alone at 5 μM) |
| --- | --- | --- | --- | --- | --- | --- | --- | --- | --- | --- | --- | --- | --- | --- |
| fucoxanthin | 76 | ↓59% | 41 | no significant LXRα transactivation activities | — | 69 | ↓49% | 51 | ↑2% | approximately 2% |  |  |  |  |
| C\C(C=C=C1C(C)(C)C[C@H](O)C[C@@]1(C)O)=C/C=C/C(C)=C/C=C/C=C(C)/C=C/C=C(\C)C(=O)C[C@@]12O[C@]1(C)C[C@@H](O)CC2(C)C [fucoxanthinol] | 48 | ↓80% | 20 | no significant LXRα transactivation activities | — | 62 | ↓64% | 36 |  |  | 79 | ↑3% | approximately 3% | approximately 2% |
